From the supplement of paper PMC8671470

How the values were obtained:
Details in all cases: 72 h
[1] = system: HL-60; test: cell viability (% survival relative to DMSO control); higher = less cytotoxic
Procedure, shortened: (§1)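 Area under the curve, where listed, was derived from four-parameter log-logistic fits with drc and PharmacoGx. These fits used CellTiter-Glo viability from HL-60 cells in RPMI 1640 with 10% FBS, normalised to DMSO wells and wells holding 10 μM proteasome inhibitor. The full library was rescreened on 384-well plates in duplicate at five tenfold concentrations, 1–10,000 nM, with DMSO or 100 nM of one of three metabolic inhibitors, for 72 h at 37 °C, 5% CO2.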

[2] = system: HL-60; test: area under dose-response curve (viability, 1 nM-10 uM) (fraction (0-1)); higher = more sensitive
Procedure, shortened: as §1

[3] = system: KCL-22
Procedure, shortened: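 Fifteen myeloid leukaemia cell lines were seeded in RPMI 1640 at a density titrated to the linear growth range. Each line went into 384-well plates with compounds acoustically pre-printed at five tenfold doses from 1 to 10,000 nM, in duplicate, and was incubated for 72 h at 37 °C with 5% CO2. Luminescent ATP viability was normalised to vehicle and to a positive control at 10 µM. The IC50 came from four-parameter log-logistic dose–response fits.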

[4] = system: KG-1; test: cell viability (% survival relative to DMSO control, bortezomib = 0%); higher = less cytotoxic
Procedure, shortened: (§2)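 After 72 h at 37 °C with 5% CO2, cell viability in 384-well plates was measured by CellTiter-Glo luminescence. The plates held compounds pre-printed at 1, 10, 100, 1000 or 10000 nM in duplicate, and cells from 10 AML and 5 CML lines seeded at densities titrated to linear growth. Percent survival is the duplicate mean, normalised to vehicle as 100% and a 10 µM positive control as 0%.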

[5] = system: HL-60; test: as above
Procedure, shortened: as §2

[6] = system: LAMA-84; test: as above
Procedure, shortened: as §2

[7] = system: KCL-22; test: as above
Procedure, shortened: as §2

[8] = system: ML-2; test: as above
Procedure, shortened: as §2

[9] = system: K-562; test: as above
Procedure, shortened: as §2

[10] = system: HEL; test: as above
Procedure, shortened: as §2

[11] = system: SHI-1; test: as above
Procedure, shortened: as §2

[12] = system: THP-1; test: as above
Procedure, shortened: as §2

[13] = system: MOLM-13; test: as above
Procedure, shortened: as §2

[14] = system: MV4-11; test: as above
Procedure, shortened: as §2

[15] = system: BV-173; test: as above
Procedure, shortened: as §2

[16] = system: NOMO-1; test: as above
Procedure, shortened: as §2

[17] = system: KU-812; test: as above
Procedure, shortened: as §2

[18] = system: Mono-Mac-6; test: as above
Procedure, shortened: as §2

C[C@](N)(Cc1ccc(O)cc1)C(=O)O [Metirosine]
cell viability [%], [1]
Details | 0.001 µM | 0.01 µM | 0.1 µM | 1 µM | 10 µM
co-treatment: AZD3965 100 nM | 101 | 101.8 | 99 | 95.8 | 97.76
co-treatment: DMSO vehicle | 108 | 104 | 101 | 101 | 103
co-treatment: GSK2194069 100 nM | 105 | 104 | 98.9 | 93.8 | 99.6
co-treatment: pictilisib 100 nM | 116 | 105 | 98.9 | 81.1 | 105

Details | area under dose-response curve, co-treatment: AZD3965 100 nM | area under dose-response curve, co-treatment: DMSO vehicle | area under dose-response curve, co-treatment: GSK2194069 100 nM | area under dose-response curve, co-treatment: pictilisib 100 nM | cell viability, 1 nM [%] | cell viability, 10 nM [%] | cell viability, 100 nM [%] | cell viability, 1000 nM [%] | cell viability, 10000 nM [%]
[2] | < 0.0301 | < 0.0301 | < 0.0301 | < 0.0301 | – | – | – | – | –
[4] | – | – | – | – | 105 | 93.9 | 94.7 | 89.3 | 107
[5] | – | – | – | – | 99.2 | 93.7 | 89.7 | 97.6 | 107
[6] | – | – | – | – | 102 | 108 | 107 | 105 | 99.2
[7] | – | – | – | – | 107 | 95.1 | 96.9 | 91.8 | 99.7
[8] | – | – | – | – | 91.1 | 96.7 | 107 | 97.9 | 93.5
[9] | – | – | – | – | 113 | 90.2 | 101 | 107 | 103
[10] | – | – | – | – | 101 | 92.6 | 99.6 | 94.7 | 108
[11] | – | – | – | – | 103 | 105 | 101 | 101 | 91.4
[12] | – | – | – | – | 98.3 | 99.5 | 105 | 94.3 | 101
[13] | – | – | – | – | 94.4 | 81.5 | 82.9 | 94.6 | 95.7
[14] | – | – | – | – | 107 | 87.3 | 92.3 | 107 | 101
[15] | – | – | – | – | 98.4 | 89.1 | 115 | 86 | 114
[16] | – | – | – | – | 95 | 96.6 | 103 | 93.6 | 102
[17] | – | – | – | – | 89.4 | 91.1 | 102 | 91.9 | 96.5
[18] | – | – | – | – | 99.2 | 101 | 107 | 92.9 | 104

Details | IC50 (cell viability) [µM]
[3] | > 10

CCCCCCCCCCC[C@@H](C[C@@H]1OC(=O)[C@H]1CCCCCC)OC(=O)[C@H](CC(C)C)NC=O [Orlistat]
cell viability [%], [1]
Details | 0.001 µM | 0.01 µM | 0.1 µM | 1 µM | 10 µM
co-treatment: AZD3965 100 nM | 98.6 | 99.5 | 102 | 94.9 | 100
co-treatment: DMSO vehicle | 93.7 | 105 | 104 | 98.57 | 99.8
co-treatment: GSK2194069 100 nM | 94.4 | 96.4 | 109 | 94.7 | 77.7
co-treatment: pictilisib 100 nM | 99.1 | 109 | 95.6 | 94.4 | 90.5

Details | area under dose-response curve, co-treatment: AZD3965 100 nM | area under dose-response curve, co-treatment: DMSO vehicle | area under dose-response curve, co-treatment: GSK2194069 100 nM | area under dose-response curve, co-treatment: pictilisib 100 nM | cell viability, 1 nM [%] | cell viability, 10 nM [%] | cell viability, 100 nM [%] | cell viability, 1000 nM [%] | cell viability, 10000 nM [%]
[2] | < 0.0301 | < 0.0301 | 0.0449 | < 0.0301 | – | – | – | – | –
[4] | – | – | – | – | 96.2 | 99.6 | 96.4 | 100 | 53.3
[5] | – | – | – | – | 122 | 105 | 108 | 106 | 98.7
[6] | – | – | – | – | 101 | 103 | 93.9 | 93.7 | 94.4
[7] | – | – | – | – | 105 | 87.9 | 90.2 | 97 | 86.9
[8] | – | – | – | – | 93.6 | 101 | 93.6 | 88.6 | 86
[9] | – | – | – | – | 118 | 85.1 | 88.2 | 103 | 103
[10] | – | – | – | – | 102 | 107 | 95.3 | 101 | 90.8
[11] | – | – | – | – | 101 | 102 | 106 | 108 | 102
[12] | – | – | – | – | 97.5 | 99 | 85.2 | 95 | 94.6
[13] | – | – | – | – | 140 | 104 | 87.9 | 65.3 | 95.2
[14] | – | – | – | – | 107 | 97.2 | 71.6 | 109 | 79.8
[15] | – | – | – | – | 86.3 | 92 | 79.9 | 87.5 | 82
[16] | – | – | – | – | 101 | 95 | 96.6 | 106 | 96.5
[17] | – | – | – | – | 98.3 | 92.1 | 96.4 | 98.5 | 89.6
[18] | – | – | – | – | 114 | 91.1 | 97.7 | 103 | 87.7

Details | IC50 (cell viability) [µM]
[3] | > 10

Cc1c(-c2ccc(-c3ccccc3F)cc2)nc2ccc(F)cc2c1C(=O)O [Brequinar]
cell viability [%], [1]
Details | 0.001 µM | 0.01 µM | 0.1 µM | 1 µM | 10 µM
co-treatment: AZD3965 100 nM | 98.8 | 99.3 | 78.9 | 84.4 | 68.2
co-treatment: DMSO vehicle | 99.9 | 98.8 | 81.4 | 87.8 | 81.3
co-treatment: GSK2194069 100 nM | 96.8 | 103 | 84.9 | 86.9 | 76.8
co-treatment: pictilisib 100 nM | 91.4 | 101 | 86.8 | 87.3 | 93

Details | area under dose-response curve, co-treatment: pictilisib 100 nM | cell viability, 1 nM [%] | cell viability, 10 nM [%] | cell viability, 100 nM [%] | cell viability, 1000 nM [%] | cell viability, 10000 nM [%]
[2] | < 0.0301 | – | – | – | – | –
[4] | – | 105 | 102 | 95 | 105 | 99
[5] | – | 98.5 | 95.8 | 93.2 | 82.7 | 50
[6] | – | 97.3 | 98.2 | 94.2 | 102 | 47.4
[7] | – | 101 | 94.3 | 97.9 | 56.3 | 29.2
[8] | – | 97.2 | 98.2 | 88.9 | 107 | 40.3
[9] | – | 98.1 | 89.2 | 92.9 | 103 | 40.4
[10] | – | 101 | 99.2 | 102 | 69 | 27.8
[11] | – | 85.3 | 99 | 103 | 111 | 63.9
[12] | – | 99.9 | 98.5 | 99 | 102 | 83.3
[13] | – | 80.9 | 84.4 | 85.3 | 95.9 | 9.24
[14] | – | 106 | 100 | 94.3 | 110 | 36.8
[15] | – | 94.7 | 90.3 | 93.3 | 118 | 32.2
[16] | – | 97.3 | 95.3 | 104 | 104 | 89.5
[17] | – | 87.2 | 95.4 | 93.1 | 100 | 80.8
[18] | – | 103 | 95.9 | 97.9 | 91.9 | 50.2

Details | IC50 (cell viability) [µM]
[3] | 0.94
